According to patent US20260103438A1, “PROBES AND METHODS TO IDENTIFY LIGANDABLE FATTY ACYLATION SITES FOR THERAPEUTIC TARGET IDENTIFICATION” (The General Hospital Corporation, priority 2022, published 2026):

Tests used:
HEK293A cells = assay: MS-based proteomics of proteins enriched by covalent probes; assay type: cell-based; details: for number of proteins collectively targeted by Compound A21, Compound B1 and Compound B4: HEK293A cells, Venn diagram (FIG. 4); for number of proteins enriched by the covalent probes also identified by SLC-ABPP: overlap with SLC-ABPP database (FIG. 5)
Procedure: For in-cell labeling, HEK293A cells with or without overexpression of proteins of interest were starved in DMEM medium with 10% dialyzed fetal bovine serum (DFBS) for 1 h and labeled using the covalent probes (10 μM) overnight. The cells were then washed and harvested using cold DPBS (14190250, Life Technologies). The cell pellets were isolated by centrifugation (500×g, 10 min) and lysed by TEA lysis buffer (50 mM TEA-HCl, pH 7.4, 150 mM NaCl, 1% Triton X-100, 0.2% SDS, 1×Protease inhibitor-EDTA free cocktail (05892791001, Roche), phosphatase inhibitor cocktail (P0044, Sigma-Aldrich)) on ice for 30 mins. The protein concentration was determined using Bio-Rad assay and adjusted to 1 mg/mL. For lysate labeling, HEK293A cells were grown in DMEM with 10% FBS. When confluence reached ˜90%, the cells were washed and harvested by cold DPBS. The cell pellets were isolated by centrifugation (500×g, 5 min) and resuspended with TEA lysis buffer (50 mM TEA-HCl, pH 7.4, 150 mM NaCl, 1% Triton X-100, IXProtease inhibitor-EDTA free cocktail, phosphatase inhibitor cocktail), incubated on ice for 15 mins, and then sonicated (7 s, 30% duty cycle, output setting=3). After centrifugation (17,000×g, 10 min), the supernatant is transferred to a clean tube. The protein concentration is determined using Bio-Rad assay and adjusted to 1 mg/mL. The lysate was then labeled with DMSO or probes (10 μM) at room temperature for 1 h with rotation. SDS was added to the lysate to a final concentration of 0.2% and the resultant solution retained for further use.
To 1.5 mg of proteomes from cell labeling or lysate labeling as described above were added 150 μL fresh prepared “click” mixture of TBTA (75 μL, 2 mM in 1:4 DMSO: t-BuOH), CuSO4 (30 μL, 50 mM in H2O), TCEP (30 μL, 50 mM in H2O) and Biotin-Azide (15 μL, 10 mM in DMSO). The samples were rotated at room temperature for 1 h. To these samples were then added MeOH (6 mL), CHCl3 (1.5 mL) and H2O (4.5 mL), and the resultant solution was mixed well. After centrifugation (17,000×g, 10 min), the aqueous layers were carefully aspirated leaving a protein disc between the organic and aqueous phases. The protein disc was washed with 6 mL of methanol and isolated by centrifugation (17,000×g, 10 min). The remaining protein pellet was collected and redissolved with 700 μL of 2% SDS in 0.1% PBST. The solution was diluted with 4.9 mL of 0.1% PBST and added 0.1% PBST-washed streptavidin agarose beads (150 μL, 1:1, sigma). After rotation at room temperature for 2 h, the beads were then pelleted by centrifugation (500×g, 5 min) and washed with 0.2% SDS in PBS (3×1 mL). The beads were transferred to a Protein Low-Binding tube and the immobilized proteins were digested by addition of urea (200 μL, 2.0 M in DPBS), CaCl2) (2.0 μL, 100 mM in H2O) and sequence grade porcine trypsin (2 μg; Promega). After digesting overnight at 37° C., the supernatant was transferred to a clean Protein Low-Binding, acidified with HCO2H (formic acid, 16 μL) and stored at −20° C. until the analyzed by LC-MS/MS.

TEAD2 = TEAD2 (Homo sapiens, UniProt Q15562); assay: Labeling of TEAD2 by covalent probes in vitro (western blot); details: probe 1 μM, 30 mins, western blot (FIG. 1)
Procedure: (§1) Recombinant PCNA (12131-H07B, Sino Biological), RAP1A (PRO-848, Prospec-Tany TechnoGene), RRAS2 (PRO-728, Prospec-Tany TechnoGene), IDH1 (ab113858, Abcam), IDH1R132H (14132, Cayman) are obtained from commercially available source. Recombinant TEAD2 protein were made in-house. All the recombinant proteins contain a His-tag.
(§2) 500 ng of recombinant protein in 50 μL of MES buffer (50 mM, PH 6.4), was contacted with a solution of the covalent probe so that the final concentration of covalent probe in the reaction mixture is 10 μM of covalent probes. After incubation for 30 mins, 50 μL of sample mixture was treated with 5 μL of freshly prepared “click” mixture containing 100 μM TBTA (678937, Sigma-Aldrich), 1 mM TCEP (C4706, Sigma-Aldrich), 1 mM CuSO4 (496130, Sigma-Aldrich), 100 μM Biotin-Azide (1167-5, Click Chemistry Tools) and incubated for another 1 h. To the samples was then added 11 μL of 6×SDS loading buffer (BP-111R, Boston Bio-Products) and the resultant mixture was denatured at 95° C. for 5 mins. SDS-PAGE was used to analyze the samples. Labeling signal was detected by streptavidin-HRP antibody (1:3000, S911, Invitrogen). The total protein level was detected by primary anti-His-tag antibody (1:10000, MA1-21315, Invitrogen) and secondary anti-mouse antibodies (1:5000, 7076S, Cell Signaling).

Myc-TEAD1 C344S mutant = target: T1, Myc-TEAD1 C344S mutant (Homo sapiens, UniProt P28347, C359S); assay: Labeling of transfected Myc-TEAD1 wild type or C344S mutant in HEK293A cells (streptavidin pulldown, western blot); assay type: cell-based; details: 10 μM overnight, C344S vs wild type (FIG. 3)
T1 construct: expressed in transfected cells; host or cells: HEK293A
Procedure: HEK293A cells was seed in 6 cm dishes overnight and transfected with plasmids using PEI reagent (1 μg/μL). Briefly, proteins of interest and PEI were diluted in serum-free DMEM medium in two tubes (DNA:PEI ratio=1:2). After standing still for 5 mins, the solutions were mixed well and allowed to stand unperturbed for an additional 20 mins. The mixture was then added to dishes directly.
For in-cell labeling, HEK293A cells with or without overexpression of proteins of interest were starved in DMEM medium with 10% dialyzed fetal bovine serum (DFBS) for 1 h and labeled using the covalent probes (10 μM) overnight. The cells were then washed and harvested using cold DPBS (14190250, Life Technologies). […] The protein concentration was determined using Bio-Rad assay and adjusted to 1 mg/mL. […] The protein concentration is determined using Bio-Rad assay and adjusted to 1 mg/mL. […]
100 μL of labeled proteome was treated with 10 μL of freshly prepared “click” mixture containing 1 mM TBTA, 10 mM TCEP, 10 mM CuSO4, 1 mM Biotin-Azide and incubated for 1 h at room temperature. […] The bound proteins were eluted with a buffer containing 10 mM EDTA (pH 8.2) and 95% formamide and analyzed with SDS-PAGE. […]

IDH1WT = IDH1WT (Homo sapiens, UniProt O75874); assay: Auto-palmitoylation of recombinant IDH1 WT with Alkyne Palmitoyl-CoA (western blot); details: indicated concentrations, 30 mins (FIG. 6D)
Procedure: as §1, §2

RAP1A = target: T2, RAP1A (Homo sapiens, UniProt P62834); assay: Auto-palmitoylation of recombinant RAP1A with Alkyne Palmitoyl-CoA (western blot); details: indicated concentrations, 30 mins (FIG. 6B)
T2 sequence (P62834 1-184): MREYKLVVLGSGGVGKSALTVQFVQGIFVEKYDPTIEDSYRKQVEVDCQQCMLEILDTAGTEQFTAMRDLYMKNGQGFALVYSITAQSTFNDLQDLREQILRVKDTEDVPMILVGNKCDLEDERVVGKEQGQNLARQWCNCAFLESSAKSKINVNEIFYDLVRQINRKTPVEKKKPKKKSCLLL
Procedure: as §1, §2

PCNA = PCNA (Homo sapiens, UniProt P12004); assay: Auto-palmitoylation of recombinant PCNA with Alkyne Palmitoyl-CoA (western blot); details: indicated concentrations, 30 mins (FIG. 6A)
Procedure: as §1, §2

RRAS2 = target: T3, RRAS2 (Homo sapiens, UniProt P62070); assay: Auto-palmitoylation of recombinant RRAS2 with Alkyne Palmitoyl-CoA (western blot); details: indicated concentrations, 30 mins (FIG. 6C)
T3 sequence (P62070 1-204): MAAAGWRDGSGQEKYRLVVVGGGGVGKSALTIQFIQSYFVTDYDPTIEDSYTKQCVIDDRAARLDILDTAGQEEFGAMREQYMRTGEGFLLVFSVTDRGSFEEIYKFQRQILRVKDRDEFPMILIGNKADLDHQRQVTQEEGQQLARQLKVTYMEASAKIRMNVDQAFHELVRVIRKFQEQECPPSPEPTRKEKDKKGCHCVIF
Procedure: as §1, §2

TEAD2, sequence (Q15562 whole entry, species assumed): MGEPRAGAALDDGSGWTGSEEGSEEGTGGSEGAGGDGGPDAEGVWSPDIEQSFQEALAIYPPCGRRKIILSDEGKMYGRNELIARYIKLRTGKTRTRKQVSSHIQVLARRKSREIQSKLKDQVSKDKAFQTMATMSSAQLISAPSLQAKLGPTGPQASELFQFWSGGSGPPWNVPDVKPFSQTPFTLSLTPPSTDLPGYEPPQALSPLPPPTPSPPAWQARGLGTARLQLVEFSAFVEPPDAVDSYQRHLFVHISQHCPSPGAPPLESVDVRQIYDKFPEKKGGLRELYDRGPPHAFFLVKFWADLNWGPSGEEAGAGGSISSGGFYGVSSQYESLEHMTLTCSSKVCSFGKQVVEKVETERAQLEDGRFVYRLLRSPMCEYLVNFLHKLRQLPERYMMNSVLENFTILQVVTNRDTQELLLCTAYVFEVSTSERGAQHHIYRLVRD
IDH1WT, sequence (O75874 whole entry): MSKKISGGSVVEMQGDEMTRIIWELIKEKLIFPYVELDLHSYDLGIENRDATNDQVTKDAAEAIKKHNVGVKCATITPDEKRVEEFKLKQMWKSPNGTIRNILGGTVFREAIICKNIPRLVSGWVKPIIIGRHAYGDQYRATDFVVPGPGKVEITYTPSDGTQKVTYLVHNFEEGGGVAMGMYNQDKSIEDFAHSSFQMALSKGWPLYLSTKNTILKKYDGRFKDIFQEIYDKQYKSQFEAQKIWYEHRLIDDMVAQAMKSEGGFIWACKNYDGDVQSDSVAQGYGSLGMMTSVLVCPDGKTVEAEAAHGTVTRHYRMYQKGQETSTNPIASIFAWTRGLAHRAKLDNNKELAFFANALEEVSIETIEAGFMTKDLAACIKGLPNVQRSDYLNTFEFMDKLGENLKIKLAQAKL
PCNA, sequence (P12004 whole entry): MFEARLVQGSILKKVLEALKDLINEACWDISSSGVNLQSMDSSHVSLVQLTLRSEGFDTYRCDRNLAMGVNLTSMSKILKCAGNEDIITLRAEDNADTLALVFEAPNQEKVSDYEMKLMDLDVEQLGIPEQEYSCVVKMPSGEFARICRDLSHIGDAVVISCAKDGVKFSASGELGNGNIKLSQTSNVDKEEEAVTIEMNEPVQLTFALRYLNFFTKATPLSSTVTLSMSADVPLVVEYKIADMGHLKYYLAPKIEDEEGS
T1 sequence (P28347 16-426 C359S limits assumed): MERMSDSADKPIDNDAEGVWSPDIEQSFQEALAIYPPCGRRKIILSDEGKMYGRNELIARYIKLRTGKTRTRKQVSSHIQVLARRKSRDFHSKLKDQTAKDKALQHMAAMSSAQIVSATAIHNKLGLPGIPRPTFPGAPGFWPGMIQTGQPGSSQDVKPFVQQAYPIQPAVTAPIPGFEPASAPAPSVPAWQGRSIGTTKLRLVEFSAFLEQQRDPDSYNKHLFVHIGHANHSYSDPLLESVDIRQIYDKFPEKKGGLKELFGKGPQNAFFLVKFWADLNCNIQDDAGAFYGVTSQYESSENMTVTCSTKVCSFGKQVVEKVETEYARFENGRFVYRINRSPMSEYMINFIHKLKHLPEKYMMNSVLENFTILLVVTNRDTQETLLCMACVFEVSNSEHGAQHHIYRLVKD

Row | SMILES | number of proteins collectively targeted by Compound A21, Compound B1 and Compound B4 (HEK293A cells) | number of proteins enriched by the covalent probes also identified by SLC-ABPP (HEK293A cells) [proteins] | labeling efficiency of TEAD2 (TEAD2) | further results
1 | C#CCCCCCCCCCCCCCCNC(=O)CBr [Compound B1, 2-bromo-N-(hexadec-15-yn-1-yl)acetamide] | One hundred and sixty | 191 | strong labeling efficiency | –
2 | C#CCCCCCCCCCCCCNS(=O)(=O)C=C [Compound A64, N-(tetradec-13-yn-1-yl)ethenesulfonamide] | – | – | strong labeling efficiency | –
3 | C#CCCCCCCCCCCCCNC(=O)CBr [Compound B4, 2-bromo-N-(tetradec-13-yn-1-yl)acetamide] | One hundred and sixty | 191 | strong labeling efficiency | effect of mutating cysteine 344 (C344S) on labeling of Myc-TEAD1 by the probe (Myc-TEAD1 C344S mutant): inhibited labeling
4 | C#CCCCCCCCCCCCCCCNC(=O)CI [Compound A21, N-(hexadec-15-yn-1-yl)-2-iodoacetamide] | One hundred and sixty | 191 | strong labeling efficiency | –
5 | C#CCCCCCCCCCCCCCC(=O)SCCNC(=O)CCNC(=O)[C@H](O)C(C)(C)COP(=O)(O)OP(=O)(O)OC[C@H]1O[C@@H](n2cnc3c(N)ncnc32)[C@H](O)[C@@H]1OP(=O)(O)O [Alkyne Palmitoyl-CoA] | – | – | – | auto-palmitoylation (labeling) of IDH1 WT (IDH1WT): auto-palmitoylated in a dose dependent manner; auto-palmitoylation (labeling) of RAP1A (RAP1A): auto-palmitoylated in a dose dependent manner; auto-palmitoylation (labeling) of PCNA (PCNA): auto-palmitoylated in a dose dependent manner; auto-palmitoylation (labeling) of RRAS2 (RRAS2): auto-palmitoylated in a dose dependent manner
6 | C#CCCCCCCCCCCCCNC(=O)CI [Compound A63, 2-iodo-N-(tetradec-13-yn-1-yl)acetamide] | – | – | strong labeling efficiency | –
7 | C#CCCCCCCCCCCCCCCNS(=O)(=O)C=C [Compound A26, N-(hexadec-15-yn-1-yl)ethenesulfonamide] | – | – | strong labeling efficiency | –
